Read-outs that look alike come from different tables or passages of the source.
Columns and labels:
Experiment in all cases: Etest MIC of indicator carbapenems on MH II agar without/with PMBN
Assay type in all cases: cell-based
E. aerogenes 9306071 = tested on: E. aerogenes 9306071
Protocol: (§1) The determinations of antibiotic MIC were carried out on solid culture media with the Etest® method. To do this, Etest® strips (bioMérieux, France) were used: • Etest® Imipenem IM 32, and • Etest® Ertapenem ETP 32, and also solid culture media, differing from one another by virtue of their non-inhibitory concentrations of PMBN.
(§2) These solid culture media are prepared in Petri dishes (0=145 mm; V=50 ml) on a base of MH II Agar (Becton Dickinson®, United States), more or less supplemented with PMBN. The PMBN concentrations range from 0 up to concentrations equivalent to one fifth of the MIC of PMBN (⅕ MICPMBN).
(§3) Using a swab and the Retro C80™ rota-plater (bioMérieux, France), the culture media were inoculated with the bacteria, originating from an inoculum of 0.5 McFarland, prepared in 0.85% NaCl solution from colonies subcultured the day before on MH II agar.
(§4) The various Etest® strips are then deposited on the surface of the culture media. After 16 to 20 hours of incubation at 35° C., the MICS were read.
(§5) To do this, imipenem and ertapenem were used as indicator carbapenems. Non-inhibitory concentrations of PMBN, equivalent to concentrations of one tenth ( 1/10), one eighth (⅛) and one fifth (⅕) of the MIC of PMBN, were applied.
(§6) In the light of the MICPMBN values previously identified, very predominantly much higher than 300 μg/ml, the following standard concentrations were retained and applied to the bacterial strains to be tested: 50, 100, 150, 200 and 300 μg/ml.
(§7) By way of indicator carbapenems according to the invention, in addition to imipenem (IM) and ertapenem (ETP), meropenem (MP) was also tested. Like the other two antibiotics, meropenem was used in the form of Etest® strips (Etest® Meropenem MP 32 from the company bioMérieux, France).
(§8) The methods used to prepare the new culture media and to carry out the antibiotic-sensitivity tests are identical to those described above.

E. coli 1204043 = tested on: E. coli 1204043
Protocol: as §1, §2, §3, §4, §5, §6, §7, §8

[1] = tested on: K. pneumoniae 1103183 (NDM producer)
Protocol: as §1, §2, §3, §4, §7, §8

[2] = tested on: E. cloacae 1008080 (IMP producer); conditions: in µg/mL
Protocol: as §1, §2, §3, §4, §7, §8

[3] = tested on: E. cloacae 1204056 (membrane impermeability)
Protocol: as §1, §2, §3, §4, §7, §8

[4] = tested on: K. pneumoniae KP 63 (porin−); conditions: Klebsiella pneumoniae
Protocol: as §1, §2, §3, §4, §7, §8

[5] = tested on: K. pneumoniae 1204036 (membrane impermeability)
Protocol: as §1, §2, §3, §4, §7, §8

[6] = tested on: Enterobacter aerogenes EA 5 (porin−); conditions: Klebsiella aerogenes
Protocol: as §1, §2, §3, §4, §7, §8

Compound: C[C@@H](O)[C@H]1C(=O)N2C(C(=O)O)=C(SCCN=CN)C[C@H]12 [IM, imipenem]
- MIC (E. aerogenes 9306071; E. aerogenes 9306071 (membrane impermeability), [PMBN] 200, Table 4a): 3 µg/mL
- MIC (E. aerogenes 9306071; E. aerogenes 9306071 (membrane impermeability), [PMBN] 300, Table 4a): 2 µg/mL
- MIC (E. aerogenes 9306071; E. aerogenes 9306071, [PMBN] 0, Table 3): 8 µg/mL
- MIC (E. aerogenes 9306071; E. aerogenes 9306071, [PMBN] MIC/5): 2 µg/mL
- MIC (E. aerogenes 9306071; E. aerogenes 9306071, [PMBN] MIC/8): 4 µg/mL
- MIC (E. aerogenes 9306071; E. aerogenes 9306071, [PMBN] MIC/10): 4 µg/mL
- MIC (E. coli 1204043; E. coli 1204043 (membrane impermeability), [PMBN] 0, Table 4a, in µg/mL): >32
- MIC (E. coli 1204043; E. coli 1204043 (membrane impermeability), [PMBN] 100, Table 4a, in µg/mL): 6-8
- MIC (E. coli 1204043; E. coli 1204043 (membrane impermeability), [PMBN] 200, Table 4a, in µg/mL): 3-6
- MIC (E. coli 1204043; E. coli 1204043 (membrane impermeability), [PMBN] 300, Table 4a, in µg/mL): 3
- MIC (E. coli 1204043; E. coli 1204043, [PMBN] 0, Table 3, in µg/mL): 8
- MIC (E. coli 1204043; E. coli 1204043, [PMBN] MIC/5, in µg/mL): 1
- MIC (E. coli 1204043; E. coli 1204043, [PMBN] MIC/8, in µg/mL): 1
- MIC (E. coli 1204043; E. coli 1204043, [PMBN] MIC/10, in µg/mL): 2
- MIC (E. coli 1204043; Escherichia coli, 1204043, E. coli 1204043 (porin−), [PMBN] 0, Table 4, read-out: MIC): 24 µg/mL
- MIC (E. coli 1204043; Escherichia coli, 1204043, E. coli 1204043 (porin−), [PMBN] 150 μg/ml, Table 4, read-out: MIC): 1 µg/mL
- MIC (E. coli 1204043; Escherichia coli, 1204043, E. coli 1204043 (porin−), [PMBN] 200 μg/ml, Table 4, read-out: MIC): 0.25 µg/mL
- MIC ([1]; [PMBN] 0, Table 4a): 24 µg/mL
- MIC ([1]; [PMBN] 100, Table 4a): > 32 µg/mL
- MIC ([1]; [PMBN] 200, Table 4a): > 32 µg/mL
- MIC ([1]; [PMBN] 300, Table 4a): 6 µg/mL
- MIC ([2]; [PMBN] 0, Table 4a): 1
- MIC ([2]; [PMBN] 100, Table 4a): 12
- MIC ([2]; [PMBN] 200, Table 4a): 3
- MIC ([2]; [PMBN] 300, Table 4a): 6
- MIC ([3]; [PMBN] 0, Table 4a): 6 µg/mL
- MIC ([3]; [PMBN] 100, Table 4a): 2 µg/mL
- MIC ([3]; [PMBN] 200, Table 4a): 1.5 µg/mL
- MIC ([3]; [PMBN] 300, Table 4a): 1 µg/mL
- MIC ([4]; [PMBN] 0): 0.25 µg/mL
- MIC ([4]; [PMBN] 50 μg/ml): 0.25 µg/mL
- MIC ([4]; [PMBN] 100 μg/ml): 0.125 µg/mL
- MIC ([4]; [PMBN] 150 μg/ml): 0.125 µg/mL
- MIC ([4]; [PMBN] 200 μg/ml): 0.125 µg/mL
- MIC ([5]; [PMBN] 0, Table 4a): 2 µg/mL
- MIC ([5]; [PMBN] 100, Table 4a): 2 µg/mL
- MIC ([5]; [PMBN] 200, Table 4a): 2 µg/mL
- MIC ([5]; [PMBN] 300, Table 4a): 1.5 µg/mL
- MIC ([6]; E. aerogenes EA 5 (porin−), [PMBN] 0, Table 4): 6 µg/mL
- MIC ([6]; E. aerogenes EA 5 (porin−), [PMBN] 50 μg/ml): 4 µg/mL
- MIC ([6]; E. aerogenes EA 5 (porin−), [PMBN] 100 μg/ml): 4 µg/mL
- MIC ([6]; E. aerogenes EA 5 (porin−), [PMBN] 150 μg/ml): 4 µg/mL
- MIC ([6]; E. aerogenes EA 5 (porin−), [PMBN] 200 μg/ml): 3 µg/mL
- MIC ([6]; EA 5 (porin−), [PMBN] 0, Table 2): 4 µg/mL
- MIC ([6]; EA 5 (porin−), [PMBN] MIC/5): 2 µg/mL
- MIC ([6]; EA 5 (porin−), [PMBN] MIC/8): 2 µg/mL
- MIC ([6]; EA 5 (porin−), [PMBN] MIC/10): 2 µg/mL

Source: US20180155757A1, “IDENTIFICATION OF BACTERIA THAT ARE RESISTANT TO CARBAPENEMS BY MEMBRANE IMPERVIOUSNESS” (BIOMÉRIEUX, priority 2015, published 2018)
